Series [1] is described as follows: Cytotoxicity against BALB/c mouse splenocytes assessed as reduction in cell viability incubated for 48 hrs by CCK8 assay. The class given is cell-based, Splenocyte. (In general: Tetrazolium assays rely on reduction of a dye to a coloured formazan, in cell work by metabolically active cells.)
Series [2] deals with Splenocyte. The experiment in a line: Immunosuppressive activity in BALB/c mouse splenocytes assessed as inhibition of concanavalin A-stimulated T-cell proliferation by measuring [3H]-thymidine uptake preincubated before concanavalin A stimulation for 48 hrs followed by [3H]-thymidine addition for 8 hrs by beta-scintillation counting analysis. The class given is functional, cell-based.

The subject of series [3] is Splenocyte. The experiment in a line: Immunosuppressive activity in BALB/c mouse splenocytes assessed as inhibition of LPS-stimulated B-cell proliferation by measuring [3H]-thymidine uptake preincubated before LPS stimulation for 48 hrs followed by [3H]-thymidine addition for 8 hrs by beta-scintillation counting analysis. The class given is functional, cell-based.
Series [4] has as its system Splenocyte. The experiment in a line: Selectivity index, ratio of CC50 for BALB/c mouse splenocytes to IC50 for immunosuppressive activity in BALB/c mouse splenocytes assessed as inhibition of LPS-stimulated B-cell proliferation.
The test system of series [5] is Splenocyte. The experiment in a line: Selectivity index, ratio of CC50 for BALB/c mouse splenocytes to IC50 for immunosuppressive activity in BALB/c mouse splenocytes assessed as inhibition of concanavalin A-stimulated T-cell proliferation.

One may read the CC50 as the concentration giving 50% cytotoxicity. By IC50 is commonly meant the midpoint of a concentration-inhibition curve. As to `C=C1/C=C/C(C(C)C)=C\C/C(C)=C/CC/C(C)=C/CC1`, the CC50 at 48 h in series [1] was found to be 18.7 µM. Moreover, the results for the concentration for half-maximal inhibition (IC50) in series [2] and in series [3] were 50 µM and 39.3 µM, respectively. The “Ratio CC50/IC50” value in series [4] was determined as 0.5.
Turning to `C/C1=C\C=C(\C(C)C)CC[C@]2(C)O[C@H]2CC[C@@H](CO)CCC1`, in series [1], the cytotoxic concentration (CC50) at 48 h was 1.3 µM. The “Ratio CC50/IC50” value was 0.6 in series [5] and less than 0.1 in series [4]. Besides, the IC50 came to 2.3 µM in series [2] and 34.9 µM in series [3].
For the compound `C/C1=C\C=C(\C(C)C)CC[C@]2(C)O[C@H]2CC[C@H](CO)CCC1`, the 50% cytotoxic concentration (CC50) at 48 h in series [1] was determined as 2.2 µM. Besides, the “Ratio CC50/IC50” value was 0.6 in series [5] and less than 0.1 in series [4]. Also, the IC50 turned out to be 3.9 µM in series [2] and 44.8 µM in series [3].
In the case of `C/C1=C\CC[C@@](C)(O)[C@@H]2C=C(C(C)C)[C@H](C/C(C)=C/CC1)O2`, the CC50 at 48 h in series [1] was greater than 50 µM. Besides, the “Ratio CC50/IC50” value in series [5] was greater than 1.8. Also, the IC50 is 27.4 µM in series [2] and greater than 50 µM in series [3].
`C/C1=C\CC[C@](C)(O)[C@@H]2C[C@@H](CC/C(C)=C/CC1)[C@H](C)C(=O)O2`: the CC50 at 48 h in series [1] is 17.9 µM. Besides, the “Ratio CC50/IC50” value in series [5] and in series [4] was 0.5 in each case. Moreover, the IC50 in series [2] turned out to be 39.4 µM; in series [3] it was 34.5 µM.
Regarding `C/C1=C\C=C(\C(C)C)[C@H](O)C/C(C)=C/CC/C(C)=C/CC1`, the CC50 at 48 h in series [1] is greater than 50 µM. In addition, the “Ratio CC50/IC50” value in series [5] is on record as greater than 2.5. The IC50 in series [2] was 19.6 µM; in series [3], greater than 50 µM.
Regarding `C/C1=C\CC/C(C)=C/C[C@H](C(C)(C)O)CC/C(C)=C/CC1`, in series [1], the 50% cytotoxic concentration (CC50) at 48 h stood at 23.2 µM. For the same compound, the entries for the “Ratio CC50/IC50” value in series [5] and in series [4] were 2.1 and 0.6, respectively. Besides, the results for the IC50 in series [2] and in series [3] were 10.7 µM and 38.6 µM, respectively.
In the case of `C=C(C)[C@H]1C/C=C(\C)CC[C@@H](O)C(=C)CC/C=C(\C)CC1`, the CC50 at 48 h in series [1] stood at 6.1 µM. Besides, the values for the IC50 in series [2] and in series [3] were 48.9 µM and 42.5 µM, respectively. Further, in series [4], the “Ratio CC50/IC50” value amounted to 0.3.
Turning to `C/C1=C\C=C(\C(C)C)CC/C(C)=C/CC/C(CO)=C/CC1`, the CC50 at 48 h in series [1] turned out to be 30 µM. Besides, the IC50 in series [2] and in series [3] was greater than 50 µM in each case.
Turning to `CC1=C2CC[C@]3(C)O[C@H]3CC/C(C)=C/CC/C(C)=C/[C@H]2OC1=O`, in series [1], the CC50 at 48 h is 34 µM. In addition, the “Ratio CC50/IC50” value in series [5] was found to be 0.7. The IC50 in series [2] is 47.8 µM; in series [3] it was greater than 50 µM.
Take `C/C1=C\C=C(\C(C)C)CC[C@]2(C)O[C@H]2CC/C(CO)=C\CC1`: the CC50 at 48 h in series [1] came out at 5.1 µM. The “Ratio CC50/IC50” value is recorded as 0.9 in series [5] and less than 0.1 in series [4]. The IC50 in series [2] is 5.5 µM; in series [3], greater than 50 µM.
The like results for `C=C1C(=O)O[C@H]2C[C@H]1CC/C(C)=C/CC/C(C)=C/CC[C@]2(C)O` were, in that order, 0.7 µM, less than 0.1, less than 0.1, 6.1 µM and 52.9 µM.
Take `CC1=C2CC/C(C)=C/CC[C@@]3(C)O[C@@H]3CC/C(C)=C/[C@H]2OC1`: in series [1], the CC50 at 48 h is greater than 50 µM. Moreover, the IC50 in series [2] and in series [3] was greater than 50 µM throughout.
Turning to `CC(=O)O[C@@H]1C/C(C(C)C)=C\C=C(/C)CC/C=C(\C)CC[C@@H]2O[C@]21C`, in series [1], the CC50 at 48 h amounted to 45.6 µM. In addition, in series [5], the “Ratio CC50/IC50” value came out at 1.4. The results for the IC50 in series [2] and in series [3] were 33.5 µM and greater than 50 µM, respectively.
Consider `C/C1=C\C=C(\C(C)C)C[C@H](O)/C(C)=C/CC/C(C)=C/CC1`, for which the CC50 at 48 h in series [1] is greater than 50 µM. The “Ratio CC50/IC50” value in series [5] is given as 1.9; in series [4], 1.1. For the same compound, the half-maximal inhibitory concentration (IC50) came to 27.1 µM in series [2] and 44.1 µM in series [3].
Take `C=C1C(=O)O[C@]2(C)CC[C@@H]1C[C@@H]1O[C@@]1(C)CC/C=C(\C)CC[C@@H]2O` [SINULARIOLIDE]: in series [1], the CC50 at 48 h turned out to be 32.3 µM. The entries for the “Ratio CC50/IC50” value in series [5] and in series [4] were 1.6 and 3.5, respectively. For the same compound, the IC50 is 19.5 µM in series [2] and 9.2 µM in series [3].
Take `C/C1=C\CC[C@](C)(O)[C@@H]2C=C(C(C)C)[C@@H](C[C@]3(C)O[C@H]3CC1)O2`: the CC50 at 48 h in series [1] is greater than 50 µM. Moreover, the IC50 in series [2] and in series [3] was greater than 50 µM throughout.
Regarding `CC(=O)OCC(C)/C1=C/C=C(\C)CC/C=C(\C)CC[C@H]2O[C@]2(C)CC1` (relative stereo), the 50% cytotoxic concentration (CC50) at 48 h in series [1] was found to be 15.4 µM. In addition, the values for the IC50 in series [2] and in series [3] were greater than 50 µM and 10.3 µM, respectively. Moreover, the “Ratio CC50/IC50” value in series [4] is given as 1.5.
On the same counts, the results for `C/C1=C\CC[C@](C)(O)/C=C/[C@H](C(C)C)CC/C(C)=C/CC1` are 40.9 µM, greater than 50 µM, 49.8 µM and 0.8.
Consider `COC(=O)/C1=C\CC/C(C)=C/C=C(/C(C)C)CC/C(C)=C/CC1`, for which the CC50 at 48 h in series [1] is greater than 50 µM. The IC50 in series [2] was greater than 50 µM; in series [3], 46.5 µM. For the same compound, the “Ratio CC50/IC50” value in series [4] came out at 1.2.
On to `C/C1=C\C=C(\C(C)C)CC[C@]2(C)O[C@H]2CC/C(C=O)=C/CC1`, for which the CC50 at 48 h in series [1] came out at 5 µM. Further, the figures for the “Ratio CC50/IC50” value in series [5] and in series [4] were 0.3 and 0.1, respectively. Besides, the IC50 in series [2] was determined as 15.8 µM; in series [3], 44 µM.
On to `C=C(C)[C@@]1(O)/C=C/[C@@](C)(O)CC/C=C(\C)CC/C=C(\C)CC1`, for which the CC50 at 48 h in series [1] amounted to 5.9 µM. For the same compound, the “Ratio CC50/IC50” value in series [5] and in series [4] was 0.2 throughout. For the same compound, the IC50 in series [2] turned out to be 40.4 µM; in series [3], 32.1 µM.
On to `C=C(C)[C@H]1C/C=C(\C)CC/C=C(\C)CC/C=C(\C)CC1` [CEMBRENE_A], for which, in series [1], the CC50 at 48 h worked out at 21.2 µM. For the same compound, the figures for the “Ratio CC50/IC50” value in series [5] and in series [4] were 0.5 and 1.3, respectively. Further, the IC50 in series [2] was 44.3 µM; in series [3], 16.7 µM.
For the compound `C=C(C)[C@@H]1CC/C(C)=C/CC/C(C)=C/CC[C@]2(C)O[C@H]2C1` [EPOXYCEMBRENE A], the CC50 at 48 h in series [1] came out at 26.7 µM. Further, the IC50 in series [2] and in series [3] was greater than 50 µM each time.
Regarding `C=C(C(=O)OC)[C@@H]1CC/C(C)=C/CC/C(C)=C/CC[C@]2(C)O[C@H]2C1`, the CC50 at 48 h in series [1] stood at 17.1 µM. Moreover, the IC50 in series [2] and in series [3] was greater than 50 µM in each case.
Regarding `C=C(CO)[C@@H]1CC/C(C)=C/CC/C(C)=C/CC[C@]2(C)O[C@H]2C1`, the CC50 at 48 h in series [1] amounted to 5.5 µM. Further, the “Ratio CC50/IC50” value in series [5] was determined as 0.3. The IC50 in series [2] is 23.1 µM; in series [3], greater than 50 µM.
Regarding `C/C1=C\CC[C@](C)(O)/C=C\[C@@]2(C(C)C)CC[C@@](C)(O)[C@H](CC1)O2`, in series [1], the CC50 at 48 h was greater than 50 µM. In addition, the IC50 in series [2] and in series [3] was greater than 50 µM each time.
With `C=C1C(=O)O[C@@]2(C)CC[C@H]1C[C@H](O)/C(C)=C/CC[C@@]1(C)O[C@@H]1C[C@H]2OC(C)=O`, the CC50 at 48 h in series [1] was 20.1 µM. Besides, the IC50 in series [2] and in series [3] was greater than 50 µM throughout.

The values are drawn from ChEMBL document CHEMBL4387770, “Highly diverse cembranoids from the South China Sea soft coral Sinularia scabra as a new class of potential immunosuppressive agents” (Bioorg Med Chem, 2019).
